Assay in all cases: NCI-60 cell line screen, 48 h
The subject of experiment [1] is DMS 273 small cell lung.
For experiment [2], the system named is DLD-1 colon.
In experiment [3] the test system is XF 498 CNS.
Experiment [4] relates to SNB-78 CNS.
Experiment [5] concerns DMS 114 small cell lung.

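Interpolation was linear, between the two tested concentrations surrounding the appropriate level; five concentrations were tested over 48 hours in 96-well plates. The concentration for full growth arrest is given as TGI.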 Where only a bound is given, the exact number is not on record here.

In the case of `N#Cc1c(-c2ccco2)cc(-c2ccc(NCc3nc4ccccc4[nH]3)cc2)nc1N`, the figures for the TGI in experiment [1] and in experiment [2] were 38.5 µM and > 100 µM, respectively.
Regarding `COC(=O)C(CCCC1(c2ccccc2)OCCO1)C(C)=O` (centres undefined), the TGI in experiment [1], in experiment [3], in experiment [2] and in experiment [4] was > 100 µM throughout.
For the compound `COc1cccc(NC(=S)Nn2c(C)nc3ccccc3c2=O)c1`, the TGI in experiment [1], in experiment [2] and in experiment [5] was > 100 µM in each case.
Regarding `CCCCc1c2c(nc3c1CCCC3O)/C(=C/c1ccccc1)CCC2` (centres undefined), the TGI is > 100 µM in experiment [1], 28.2 µM in experiment [3], 53.1 µM in experiment [5] and > 100 µM in experiment [4].
Take `CC1=C2C(=O)[C@H]3[C@@H](CC=C4C[C@@H](O)CC[C@@]43C)[C@@H]2CC[C@]12O[C@@H]1C[C@H](C)CN[C@H]1[C@H]2C`: the TGI in experiment [1] turned out to be 48.5 µM; in experiment [2], 97.1 µM; in experiment [5] it was 41.5 µM; in experiment [4] it was 39.8 µM.
`Nc1nc(SCCNC(=O)CCc2ccc(O)cc2)nc2c1ncn2C1OC(CO)C(O)C1O` (centres undefined): the TGI in experiment [1], in experiment [3], in experiment [2], in experiment [5] and in experiment [4] was > 203 µM each time.
For `Clc1ccc(SCCSCCCCCCCCCCSCCSc2ccc(Cl)cc2)cc1`, the TGI in experiment [1], in experiment [2], in experiment [5] and in experiment [4] was > 100 µM throughout.
Take `COc1cc2c(c(C)c1O)[C@H]1COc3ccccc3[C@H]1O2`: the TGI in experiment [1] is 20.5 µM; in experiment [2], > 100 µM; in experiment [5], 47.6 µM; in experiment [4], 80.7 µM.
As for `COC(=O)C1=C(C(=O)OC)C2(OC(C)=O)c3ccccc3-c3ccccc3C12` (centres undefined), the TGI in experiment [1] was 9.61 µM; in experiment [3] it was 26.1 µM; in experiment [2], 3.28 µM; in experiment [5] it was 9.89 µM; in experiment [4] it was 10.8 µM.
For the compound `CCCn1c(SCC)c2ccccc2c1-c1nc(F)nc(F)n1`, the TGI in experiment [1], in experiment [3], in experiment [5] and in experiment [4] was > 100 µM throughout.
For the compound `COc1ccc(C2C3C(=O)C=CC(=O)C3[C@@H]2C)cc1OC` (some centres undefined), the TGI in experiment [1], in experiment [3], in experiment [2], in experiment [5] and in experiment [4] was > 100 µM in each case.

The values are drawn from PubChem BioAssay (NCI).
